Columns and labels:
[1] = tested on: Wister-strain male rats; assay: Acute toxicity test; type: in vivo; details: 100 ml/kg-body weight, intravenous, observed for one week
Method: The acute toxicity test on the preparations of the present invention was carried out using the preparations of the present invention shown in Table 4 which had been physiologically isotonized. The test animals used were Wister-strain male rats (weighing 100-120 g).

[2] = Distribution of perfluoro-compound in organs (gas chromatography); type: in vivo, Wister-strain male rats; details: 4 g/kg, tail vein, rats

| SMILES | death cases [1] | adverse influence on the liver or spleen organ ([2]; 3 months) | uptake by and disappearance from the reticulo-endothelial organs ([2]; 3 months) | Residual Rate of perfluorobicyclo compound ([2]; Liver, 1 week after administration) [%] | Residual Rate of perfluorobicyclo compound ([2]; Liver, 2 weeks after administration) [%] | Residual Rate of perfluorobicyclo compound ([2]; Liver, 3 months after administration) [%] | Residual Rate of perfluorobicyclo compound ([2]; Liver, 4 weeks after administration) [%] | Residual Rate of perfluorobicyclo compound ([2]; Spleen, 1 week after administration) [%] | Residual Rate of perfluorobicyclo compound ([2]; Spleen, 2 weeks after administration) [%] | Residual Rate of perfluorobicyclo compound ([2]; Spleen, 3 months after administration) [%] | Residual Rate of perfluorobicyclo compound ([2]; Spleen, 4 weeks after administration) [%] |
| --- | --- | --- | --- | --- | --- | --- | --- | --- | --- | --- | --- |
| FC(F)(F)C1(F)N2C(F)(F)C(F)(F)C(F)(F)C(F)(F)C2(F)C(F)(F)C(F)(F)C1(F)F (stereo not drawn) [Example 1, perfluoro-4-methyloctahydroquinolidine] | no death case | no evidence of adverse influence on the liver or spleen organ | taken up in greater amounts by the reticulo-endothelial organs shortly after the administration, but soon disappeared rapidly | 19.92 | 8.66 | 0.30 | 1.88 | 11.61 | 9.33 | 0.09 | 2.45 |
| FC(F)(F)C(F)(F)C1(F)N2C(F)(F)C(F)(F)C(F)(F)C(F)(F)C2(F)C(F)(F)C(F)(F)C1(F)F (stereo not drawn) [Example 101, perfluoro-4-ethyloctahydroquinolidine] | no death case | – | – | – | – | – | – | – | – | – | – |

Reference: patent US4591599A, “Perfluoropyrrolizines and emulsions thereof useful as blood substitutes” (The Green Cross Corporation, priority 1984, dated 1986)
